US9663516B2, “Bicyclic-pyrimidinedione compounds” (MyoKardia, Inc., priority 2014, dated 2017)

Columns and labels:
[1] = system: adult rat ventricular myocytes; assay: Cardiomyocyte contractility assay (fractional shortening, IonOptix edge detection); assay type: cell-based; details: Ventricular myocyte, 1 Hz pacing; for inhibition at 0.3 µM: 0.3 μM compound; for inhibition at 1 µM: 1.0 μM compound
Procedure: Contractility of adult rat ventricular myocytes is determined by edge detection with an IonOptix contractility system. Aliquots of myocytes in Tyrode buffer (137 mM NaCl, 3.7 mM KCL, 0.5 mM MgCl2, 1.5 mM CaCl2, 4 mM HEPES, 11 mM glucose) are placed in a perfusion chamber (Series 20 RC-27NE; Warner Instruments), allowed to adhere to the coverslip, and then perfused with 37° C. Tyrode buffer. Myocytes are filed stimulated at 1 Hz and 10V. Only myocytes with clear striations, quiescent prior to pacing, with a cell length of 120-180 microns, a basal fractional shortening equal to 3-8% of the cell length, and a contraction velocity greater than 100 microns per second are used for contractility experiments. To determine the response to compounds, myocytes are first perfused for 60 seconds with Tyrodes buffer followed by 5 minutes of compound and a 140 second washout with Tyrodes buffer. Data is continuously recorded using IonOptix software. Contractility data is analyzed using Ionwizard software (IonOptix). For each cell, 10-20 contractility transients were averaged and compared under basal (no compound) and compound-treated conditions. Compound activity is measured by effects on fractional shortening (FS), where fractional shortening is the ratio of the peak length of the cell at contraction divided by the basal cell length normalized to 100% for an untreated cell.

bovine cardiac myosin = bovine cardiac myosin (Bos taurus, UniProt Q9BE39); assay: Myosin inhibition assay (PK/LDH-coupled ATPase, bovine cardiac myofibrils); assay type: biochemical; details: calcium concentration giving 50% activation, pH 6.8, read-out: bcMF pCa_6 IC50
Procedure: Small molecule agents were assessed for their ability to inhibit the enzymatic activity of bovine cardiac myosin using a biochemical assay that couples the release of ADP (adenosine diphosphate) from cardiac myosin to an enzymatic coupling system consisting of pyruvate kinase and lactate dehydrogenase (PK/LDH) and monitoring the absorbance decrease of NADH (at 340 nm) as a function of time. PK converts ADP to ATP (adenosine triphosphate) by converting PEP (phosphoenolpyruvate) to pyruvate. Pyruvate is then converted to lactate by LDH by converting NADH (nicotinamide adenine dinucleotide) to NAD (oxidized nicotinamide adenine dinucleotide). […] Prior to testing small molecule agents, the bovine myofibrils were assessed for their calcium responsiveness and the calcium concentration that achieves a 50% activation of the myofibril system was chosen as the final condition for assessing the inhibitory activity of the small molecule agents. All enzymatic activity was measured in a buffered solution containing 12 mM PIPES (piperazine-N,N′-bis(2-ethanesulfonic acid), 2 mM magnesium chloride at pH 6.8 (PM12 buffer). Final assay conditions were 1 mg/mL of bovine cardiac myofibrils, 0.4 mM PK/LDH, 50 uM ATP, 0.1 mg/mL BSA (bovine serum albumin), 10 ppm antifoam, 2 mM BME, 0.5 mM NADH, 1.5 mM PEP at the desired free calcium concentration required to achieve 50% activation of the myofibrils.
A dilution series of compound was created in DMSO such that the final desired concentration of compound would be achieved in a volume of 30 μL with a fixed DMSO concentration of 3.3% (v/v). Typically 1 μL of the dilution series were added to 384 well plate to achieve an 10 point dose response. Following the addition of 14 μL of a solution containing bovine cardiac myofibrils, PK/LDH and a solution of calcium (that achieved 50% activation), the enzymatic reaction was started with the addition of 15 μL of a solution containing ATP, PEP and NADH. The reaction progress was followed in a PerkinElmer Envision plate reader at ambient temperature using clear bottom plates. The plate reader was configured to read absorbance at 340 nm in kinetics mode for 15 minutes. Data were recorded as the slope of the absorbance response to time. The slopes of the absorbance response as a function of time were normalized to slopes on the plate containing DMSO. This normalized rate was then plotted as a function of small molecule concentration and the data was fitted to a four-parameter fit using EXCEL XLfit. The IC50 is the concentration at which fifty percent of the total response is inhibited.

Sequence of bovine cardiac myosin (Q9BE39 whole entry): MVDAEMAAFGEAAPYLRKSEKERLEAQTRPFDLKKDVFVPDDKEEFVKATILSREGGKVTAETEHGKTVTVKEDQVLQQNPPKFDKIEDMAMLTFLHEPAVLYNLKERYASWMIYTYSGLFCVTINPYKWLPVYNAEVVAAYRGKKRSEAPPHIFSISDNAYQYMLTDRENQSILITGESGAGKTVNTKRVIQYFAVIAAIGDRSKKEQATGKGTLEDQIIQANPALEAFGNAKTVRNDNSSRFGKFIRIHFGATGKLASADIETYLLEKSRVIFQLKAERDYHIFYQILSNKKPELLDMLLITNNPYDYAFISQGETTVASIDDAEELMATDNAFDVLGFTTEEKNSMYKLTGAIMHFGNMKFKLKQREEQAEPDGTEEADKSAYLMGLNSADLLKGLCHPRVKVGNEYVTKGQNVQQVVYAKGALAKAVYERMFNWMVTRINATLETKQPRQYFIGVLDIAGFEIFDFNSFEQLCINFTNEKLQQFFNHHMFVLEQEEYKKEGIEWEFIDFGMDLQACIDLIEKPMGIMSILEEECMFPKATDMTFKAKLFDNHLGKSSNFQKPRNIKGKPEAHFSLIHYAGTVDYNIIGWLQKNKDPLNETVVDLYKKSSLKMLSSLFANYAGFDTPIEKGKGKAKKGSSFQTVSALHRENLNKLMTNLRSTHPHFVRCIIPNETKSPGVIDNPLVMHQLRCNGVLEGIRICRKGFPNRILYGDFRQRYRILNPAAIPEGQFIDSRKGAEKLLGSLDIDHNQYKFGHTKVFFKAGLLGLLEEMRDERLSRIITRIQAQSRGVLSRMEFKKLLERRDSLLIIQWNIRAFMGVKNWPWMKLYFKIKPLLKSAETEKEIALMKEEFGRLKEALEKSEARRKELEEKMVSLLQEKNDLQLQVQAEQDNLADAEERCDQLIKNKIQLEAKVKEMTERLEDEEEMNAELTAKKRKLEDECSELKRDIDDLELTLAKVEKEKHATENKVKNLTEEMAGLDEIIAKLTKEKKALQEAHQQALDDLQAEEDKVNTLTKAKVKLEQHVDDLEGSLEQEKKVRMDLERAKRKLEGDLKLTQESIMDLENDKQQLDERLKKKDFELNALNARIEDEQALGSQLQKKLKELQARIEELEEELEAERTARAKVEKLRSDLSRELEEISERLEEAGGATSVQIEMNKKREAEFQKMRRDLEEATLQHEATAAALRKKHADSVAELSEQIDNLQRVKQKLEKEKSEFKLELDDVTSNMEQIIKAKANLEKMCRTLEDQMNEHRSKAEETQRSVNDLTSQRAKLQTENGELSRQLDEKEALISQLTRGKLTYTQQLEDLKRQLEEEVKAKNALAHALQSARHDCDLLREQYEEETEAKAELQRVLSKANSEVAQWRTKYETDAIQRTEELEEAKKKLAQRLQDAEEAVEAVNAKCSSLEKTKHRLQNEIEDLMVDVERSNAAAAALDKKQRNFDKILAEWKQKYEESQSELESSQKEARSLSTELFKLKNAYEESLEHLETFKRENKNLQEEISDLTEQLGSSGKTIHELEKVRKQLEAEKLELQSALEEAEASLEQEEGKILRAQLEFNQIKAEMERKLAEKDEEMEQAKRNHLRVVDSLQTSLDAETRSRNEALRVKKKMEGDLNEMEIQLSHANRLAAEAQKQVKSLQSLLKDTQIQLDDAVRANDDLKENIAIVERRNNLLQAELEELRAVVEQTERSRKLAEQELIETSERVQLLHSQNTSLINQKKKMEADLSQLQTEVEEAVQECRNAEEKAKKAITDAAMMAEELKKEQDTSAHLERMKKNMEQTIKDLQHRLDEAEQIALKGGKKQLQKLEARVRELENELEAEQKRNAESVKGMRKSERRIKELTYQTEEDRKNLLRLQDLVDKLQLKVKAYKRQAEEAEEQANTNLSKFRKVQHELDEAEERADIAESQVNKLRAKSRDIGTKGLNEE
Sequence of bovine cardiac myosin (P85100 whole entry partner): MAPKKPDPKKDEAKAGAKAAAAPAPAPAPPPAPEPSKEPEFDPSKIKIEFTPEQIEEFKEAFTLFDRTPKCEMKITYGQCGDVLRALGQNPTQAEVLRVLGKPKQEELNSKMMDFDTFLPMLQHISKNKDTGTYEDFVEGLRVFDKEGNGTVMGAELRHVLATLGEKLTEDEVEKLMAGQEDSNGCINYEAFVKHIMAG
Sequence of bovine cardiac myosin (Q3SZE5 whole entry partner): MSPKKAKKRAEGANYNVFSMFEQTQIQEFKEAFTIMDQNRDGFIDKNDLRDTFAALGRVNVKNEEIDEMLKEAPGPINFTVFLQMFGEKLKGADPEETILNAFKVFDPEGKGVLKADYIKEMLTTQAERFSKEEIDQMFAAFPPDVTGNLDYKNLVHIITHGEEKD

`O=c1[nH]c2c(c(=O)n1-c1cc(F)cc(F)c1)CC[C@H](C1CCC(F)(F)CC1)N2` [Compound 2, (R)-7-(4,4-Difluorocyclohexyl)-3-(3,5-difluorophenyl)-5,6,7,8-tetrahydropyrido[2,3-d]pyrimidine-2,4(1H,3H)-dione] was tested, and the inhibition at 0.3 µM [1] was less than 33%, the inhibition at 1 µM [1] was greater than 66% and the IC50 (bovine cardiac myosin) was less than 1000 nM.
Molecule `CC(C)n1c(=O)[nH]c2c(c1=O)CC[C@H](c1ccc(F)c(F)c1)N2` [Compound 4, (7R)-7-(3,4-difluorophenyl)-3-isopropyl-5,6,7,8-tetrahydropyrido[2,3-d]pyrimidine-2,4(1H,3H)-dione] has an inhibition at 0.1 µM ([1]; 0.1 μM compound) of less than 33%, an inhibition at 0.3 µM [1] of 33 to 66% and an IC50 (bovine cardiac myosin) of 1000 to 15000 nM.
`CC(C)n1c(=O)[nH]c2c(c1=O)CC[C@H](c1ccc(F)cc1F)N2` [Compound 6, (R)-7-(2,4-Difluorophenyl)-3-isopropyl-5,6,7,8-tetrahydropyrido[2,3-d]pyrimidine-2,4(1H,3H)-dione] was tested, and the inhibition at 0.3 µM [1] was 33 to 66%, the inhibition at 1 µM [1] was greater than 66% and the IC50 (bovine cardiac myosin) was less than 1000 nM.
`CCn1c(=O)[nH]c2c(c1=O)CC[C@H](c1ccc(F)c(F)c1)N2` [Compound 9, (R)-7-(3,4-Difluorophenyl)-3-ethyl-5,6,7,8-tetrahydropyrido[2,3-d]pyrimidine-2,4(1H,3H)-dione] gave an inhibition at 1 µM [1] of 33 to 66% and an IC50 (bovine cardiac myosin) of 1000 to 15000 nM.
With `CCn1c(=O)[nH]c2c(c1=O)CC[C@H](c1ccccc1F)N2` [Compound 14] the inhibition at 0.3 µM [1] was less than 33%, the inhibition at 1 µM [1] was greater than 66% and the IC50 (bovine cardiac myosin) was 1000 to 15000 nM.
With `CC[C@H](C)n1c(=O)[nH]c2c(c1=O)CC[C@H](c1ccc(F)c(F)c1)N2` [Compound 18] the inhibition at 0.3 µM [1] was 33 to 66% and the IC50 (bovine cardiac myosin) was 1000 to 15000 nM.
`CCn1c(=O)[nH]c2c(c1=O)CC[C@H](c1ccc(F)cc1)N2` [Compound 20] showed an inhibition at 1 µM [1] of 33 to 66% and an IC50 (bovine cardiac myosin) of 1000 to 15000 nM.
Molecule `O=c1[nH]c2c(c(=O)n1CC(F)F)CC[C@H](c1ccc(F)c(F)c1)N2` [Compound 22] has an inhibition at 1 µM [1] of 33 to 66% and an IC50 (bovine cardiac myosin) of 1000 to 15000 nM.
With `O=c1[nH]c2c(c(=O)n1C1CCC1)CC[C@H](C1CCC(F)(F)CC1)N2` [Compound 31] the inhibition at 0.3 µM [1] was 33 to 66% and the IC50 (bovine cardiac myosin) was less than 1000 nM.
Work on `CC(C)n1c(=O)[nH]c2c(c1=O)CC[C@H](C1CCC(F)(F)CC1)N2` [Compound 46] yielded an inhibition at 1 µM [1] greater than 66% and an IC50 (bovine cardiac myosin) of less than 1000 nM.
Molecule `O=c1[nH]c2c(c(=O)n1-c1ccccc1)CC[C@H](c1ccc(F)c(F)c1)N2` [Compound 48] has an inhibition at 0.3 µM [1] of less than 33%, an inhibition at 1 µM [1] of less than 33% and an IC50 (bovine cardiac myosin) of 1000 to 15000 nM.
For `O=c1[nH]c2c(c(=O)n1-c1ccccc1)CC[C@H](c1ccccc1F)N2` [Compound 108], the IC50 (bovine cardiac myosin) was 1000 to 15000 nM.
`O=c1[nH]c2c(c(=O)n1-c1ccccc1)CC[C@@H](c1ccccc1F)N2` [Compound 109] was tested, and the IC50 (bovine cardiac myosin) was greater than 15000 nM.
`COC(=O)N1CCC(n2c(=O)[nH]c3c(c2=O)CC[C@H](c2ccccc2)N3)CC1` [Compound 110] showed an IC50 (bovine cardiac myosin) of 1000 to 15000 nM.
For `CC(C)n1c(=O)[nH]c2c(c1=O)CC[C@](C)(c1ccc(F)c(F)c1)N2` [Compound 111], the IC50 (bovine cardiac myosin) was less than 1000 nM.
`CC(C)n1c(=O)[nH]c2c(c1=O)CC[C@@](c1ccccc1)(C(F)F)N2` [Compound 112] showed an IC50 (bovine cardiac myosin) of less than 1000 nM.
`CC1(n2c(=O)[nH]c3c(c2=O)CC[C@@H](c2ccccc2F)N3)CC1` [Compound 113] showed an IC50 (bovine cardiac myosin) greater than 15000 nM.
With `CC1(n2c(=O)[nH]c3c(c2=O)CC[C@H](c2ccccc2F)N3)CC1` [Compound 114] the IC50 (bovine cardiac myosin) was 1000 to 15000 nM.
For `CC(C)n1c(=O)[nH]c2c(c1=O)CC[C@](C)(c1cc(F)ccc1F)N2` [Compound 115], the IC50 (bovine cardiac myosin) was less than 1000 nM.
For `CC(C)n1c(=O)[nH]c2c(c1=O)CC(F)(F)[C@@H](c1ccccc1)N2` [Compound 117, (R)-6,6-Difluoro-3-isopropyl-7-phenyl-5,6,7,8-tetrahydropyrido[2,3-d]pyrimidine-2,4(1H,3H)-dione], the IC50 (bovine cardiac myosin) was greater than 15000 nM.
Molecule `Cn1c(=O)[nH]c2c(c1=O)CC[C@](C)(c1cc(F)ccc1F)N2` [Compound 118] has an IC50 (bovine cardiac myosin) of 1000 to 15000 nM.
`CCn1c(=O)[nH]c2c(c1=O)CC[C@](C)(c1cc(F)ccc1F)N2` [Compound 119] was tested, and the IC50 (bovine cardiac myosin) was 1000 to 15000 nM.
`CC1(n2c(=O)[nH]c3c(c2=O)CC[C@H](c2cc(F)ccc2F)N3)CC1` [Compound 120] was tested, and the IC50 (bovine cardiac myosin) was 1000 to 15000 nM.
With `CC1(n2c(=O)[nH]c3c(c2=O)CC[C@H](c2cccc(F)c2)N3)CC1` [Compound 121] the IC50 (bovine cardiac myosin) was 1000 to 15000 nM.
With `Cc1ccccc1[C@H]1CCc2c([nH]c(=O)n(C3(C)CC3)c2=O)N1` [Compound 122] the IC50 (bovine cardiac myosin) was 1000 to 15000 nM.
`CCn1c(=O)[nH]c2c(c1=O)CC[C@](CC)(c1ccccc1)N2` [Compound 123] was tested, and the IC50 (bovine cardiac myosin) was 1000 to 15000 nM.
In the case of `Cc1cccc([C@H]2CCc3c([nH]c(=O)n(C4(C)CC4)c3=O)N2)c1` [Compound 124], the IC50 (bovine cardiac myosin) is reported as 1000 to 15000 nM.
For `COC(=O)N1CCC(n2c(=O)[nH]c3c(c2=O)CC[C@](C)(c2ccc(F)c(F)c2)N3)CC1` [Compound 125], the IC50 (bovine cardiac myosin) was 1000 to 15000 nM.
Work on `Cn1c(=O)[nH]c2c(c1=O)CC[C@](C)(c1cccc(F)c1)N2` [Compound 126, (R)-7-(3-Fluorophenyl)-3,7-dimethyl-5,6,7,8-tetrahydropyrido[2,3-d]pyrimidine-2,4(1H,3H)-dione] yielded an IC50 (bovine cardiac myosin) of 1000 to 15000 nM.
Molecule `C[C@]1(c2cccc(F)c2)CCc2c([nH]c(=O)n(-c3ccccc3)c2=O)N1` [Compound 127] has an IC50 (bovine cardiac myosin) of less than 1000 nM.
`C[C@]1(c2cccc(F)c2)CCc2c([nH]c(=O)n(C3CCOCC3)c2=O)N1` [Compound 128] showed an IC50 (bovine cardiac myosin) of less than 1000 nM.
With `CC(C)n1c(=O)[nH]c2c(c1=O)CC(F)(F)[C@H](c1cccc(Cl)c1)N2` [Compound 129] the IC50 (bovine cardiac myosin) was less than 1000 nM.
With `CC(C)n1c(=O)[nH]c2c(c1=O)CC(F)(F)[C@@H](c1cccc(Cl)c1)N2` [Compound 130] the IC50 (bovine cardiac myosin) was greater than 15000 nM.
Work on `CCn1c(=O)[nH]c2c(c1=O)CC[C@@](c1ccccc1)(C(C)C)N2` [Compound 131] yielded an IC50 (bovine cardiac myosin) of 1000 to 15000 nM.
Molecule `CCn1c(=O)[nH]c2c(c1=O)CC[C@@](c1ccccc1)(C(C)C)N2` [Compound 132] has an IC50 (bovine cardiac myosin) greater than 15000 nM.
`CCC[C@]1(c2ccccc2)CCc2c([nH]c(=O)n(CC)c2=O)N1` [Compound 133] showed an IC50 (bovine cardiac myosin) of 1000 to 15000 nM.
With `C[C@]1(c2cc(F)ccc2F)CCc2c([nH]c(=O)n(C3CCC3)c2=O)N1` [Compound 134] the IC50 (bovine cardiac myosin) was less than 1000 nM.
In the case of `C[C@]1(c2cc(F)ccc2F)CCc2c([nH]c(=O)n(-c3cc(F)cc(F)c3)c2=O)N1` [Compound 135], the IC50 (bovine cardiac myosin) is reported as less than 1000 nM.
`C[C@]1(c2cccc(F)c2)CCc2c([nH]c(=O)n(CC(F)F)c2=O)N1` [Compound 136] showed an IC50 (bovine cardiac myosin) of less than 1000 nM.
`C[C@]1(c2cccc(F)c2)CCc2c([nH]c(=O)n(CC(F)(F)F)c2=O)N1` [Compound 137] was tested, and the IC50 (bovine cardiac myosin) was less than 1000 nM.
Work on `C[C@]1(c2cc(F)ccc2F)CCc2c([nH]c(=O)n(C3CC3)c2=O)N1` [Compound 138] yielded an IC50 (bovine cardiac myosin) of less than 1000 nM.
For `C[C@]1(c2ccccc2)CCc2c([nH]c(=O)n(-c3ccccc3)c2=O)N1` [Compound 139], the IC50 (bovine cardiac myosin) was less than 1000 nM.
For `CC(C)n1c(=O)[nH]c2c(c1=O)CC(F)(F)[C@](C)(c1ccccc1)N2` [Compound 140], the IC50 (bovine cardiac myosin) was 1000 to 15000 nM.
In the case of `COC(=O)N1CCC([C@H]2CCc3c([nH]c(=O)n(C(C)C)c3=O)N2)CC1` [Compound 141], the IC50 (bovine cardiac myosin) is reported as 1000 to 15000 nM.
Work on `CCn1c(=O)[nH]c2c(c1=O)CC[C@@](c1ccccc1)(C1CCOCC1)N2` [Compound 142] yielded an IC50 (bovine cardiac myosin) of less than 1000 nM.
Work on `CCn1c(=O)[nH]c2c(c1=O)CC[C@](c1ccccc1)(C1CCOCC1)N2` [Compound 143] yielded an IC50 (bovine cardiac myosin) of 1000 to 15000 nM.
Work on `CCn1c(=O)[nH]c2c(c1=O)C[C@](C)(c1ccccc1)N2` [Compound 144] yielded an IC50 (bovine cardiac myosin) greater than 15000 nM.
Work on `CCn1c(=O)[nH]c2c(c1=O)CC[C@@](c1ccccc1)(C1CCC1)N2` [Compound 145] yielded an IC50 (bovine cardiac myosin) of less than 1000 nM.
For `CCn1c(=O)[nH]c2c(c1=O)CC[C@](c1ccccc1)(C1CCC1)N2` [Compound 146], the IC50 (bovine cardiac myosin) was greater than 15000 nM.
